Data taken from US11865126B2, “Method for treating anxiety disorders, headache disorders, and eating disorders with psilocybin” (priority 2019, dated 2024).

System: healthy subjects
Assay: Phase 1 healthy volunteer study, single oral dose: treatment-emergent adverse events
Assay type: in vivo, human
Details: 25 mg
Method: A Phase 1 randomized, double-blind, placebo-controlled study to evaluate the effect of psilocybin on cognitive and emotional processing as compared to placebo in healthy volunteers was conducted. The study investigated the short-term (Day 7) and long-term (Day 28) effects of moderate (10 mg) and high doses (25 mg) of psilocybin on key domains of cognition, such as episodic memory, attention, working and spatial memory, social cognition and elements of executive function, including cognitive flexibility.
90 healthy subjects were studied. Approximately 50% of the subjects were psilocybin-naïve. For subjects with prior psilocybin experience, the last exposure was at least 1 year prior to the signing of the Informed Consent Form (ICF). Approximately 50% of the subjects were female. Subjects were stratified by sex and age (18-35 years old; >35 years old).
Each subject was assigned 1 treatment bottle containing 5 capsules packaged in a double-blind fashion, depending on the randomized treatment arm, the bottle contained one of the following: • a. Psilocybin 10 mg: 2×5-mg oral psilocybin capsules plus 3× placebo capsules • b. Psilocybin 25 mg: 5×5-mg oral psilocybin capsules • c. Placebo: 5× placebo capsules
Each 5-mg oral psilocybin capsule comprised 5 mg crystalline psilocybin in the form of Polymorph A, 12.5 mg of SMCC 50, 79.5 mg of SMCC 90, 1 mg sodium starch glycolate, 1 mg colloidal silicon dioxide, and 1 mg sodium stearyl fumarate
Adverse events: Throughout the course of the study, all AEs were monitored and recorded. Each AE was classified according to the following criteria: • i. […] Moderate: The AE produces some impairment of functioning, but is not hazardous to the subject's health. • iii. Severe: The AE produces significant impairment of functioning or incapacitation and is a definite hazard to the subject's health.
Selected Adverse Events of included: • (a) Euphoric mood • (b) Dissociative disorder • (c) Hallucination • (d) Psychotic disorder • (e) Cognitive disorder • (f) Disturbance in attention • (g) Altered mood • (h) Impairment of psychomotor skills • (i) Inappropriate affect • (j) Overdose • (k) Intentional product misuse • (l) Illusion
For example, drug-induced hepatitis that resolved without evidence of hepatic failure would not be considered life threatening even though drug-induced hepatitis can be fatal. • (c) Inpatient hospitalization or prolongation of existing hospitalization. • (d) Persistent or significant disability/incapacity. • (e) Congenital anomaly/birth defect in the offspring of a subject who received psilocybin. • (f) Other: Important medical events that may not result in death, be life-threatening, or require hospitalization, may be considered an SAE when, based upon appropriate medical judgment, they may jeopardize the subject and may require medical or surgical intervention to prevent one of the outcomes listed in this definition. […] Visits:
Visit 3 (V3): Drug Administration (Day 0): The subject was asked to eat a light breakfast at least two hours prior to coming to the clinic for study drug administration. On Day 0 (V3), the subject underwent the SSTS, had vital signs obtained, medications reviewed, AEs recorded and eligibility reviewed prior to being randomized to study drug. The study drug was administered to up to six subjects simultaneously in individual beds separated by a curtain. The subject was invited to put on eyeshades and headphones, lie down and listen to calming music for the rest of the session (six hours). The subject was supported 1:1 with a chaperone and supervised by the study psychiatrist and lead therapist.
Recording of adverse events and prior/concomitant medication was performed at each visit.
During administration of psilocybin, each subject received one on one support from a trained assisting therapist and each dosing session was supervised by a study psychiatrist and a lead therapist. […]

## CN(C)CCc1c[nH]c2cccc(OP(=O)(O)O)c12 [psilocybin]
  Any severe TEAE: % of subjects: (33.3) %
  Any severe TEAE: Events: 29
  Any severe TEAE: N (%): 10
  Emotional disorder, worst severity Mild: Events: 1
  Emotional disorder, worst severity Moderate: Events: 5
  Emotional disorder, worst severity Severe: Events: 0
  Emotional disorder, worst severity Severe: N (%): 0
  Emotional disorder: Events: 6
  Euphoric mood, worst severity Mild: Events: 3
  Euphoric mood, worst severity Mild: N (%): 3 (10.0)
  Euphoric mood, worst severity Moderate: Events: 4
  Euphoric mood, worst severity Severe: Events: 0
  Euphoric mood, worst severity Severe: N (%): 0
  Euphoric mood: Events: 8
  Fatigue, worst severity Mild: Events: 3
  Fatigue, worst severity Mild: N (%): 3 (10.0)
  Fatigue, worst severity Moderate: Events: 5
  Fatigue, worst severity Severe: Events: 0
  Fatigue, worst severity Severe: N (%): 0
  Fatigue: Events: 8
  Feeling abnormal, worst severity Mild: Events: 0
  Feeling abnormal, worst severity Mild: N (%): 0
  Feeling abnormal, worst severity Moderate: Events: 0
  Feeling abnormal, worst severity Moderate: N (%): 0
  Feeling abnormal, worst severity Severe: Events: 0
  Feeling abnormal, worst severity Severe: N (%): 0
  Feeling abnormal: Events: 0
  Feeling abnormal: N (%): 0
  Feeling of relaxation: Events: 1
  Gastrointestinal disorders, worst severity Mild: Events: 4
  Gastrointestinal disorders, worst severity Moderate: Events: 1
  Gastrointestinal disorders, worst severity Severe: Events: 0
  Gastrointestinal disorders, worst severity Severe: N (%): 0
  Gastrointestinal disorders: Events: 5
  General disorders and administration site conditions, worst severity Mild: Events: 8
  General disorders and administration site conditions, worst severity Moderate: Events: 7
  General disorders and administration site conditions, worst severity Moderate: N (%): 6 (20.0)
  General disorders and administration site conditions, worst severity Severe: Events: 1
  General disorders and administration site conditions: Events: 18
  Hallucination, auditory, worst severity Mild: Events: 1
  Hallucination, auditory, worst severity Moderate: Events: 3
  Hallucination, auditory, worst severity Moderate: N (%): 3 (10.0)
  Hallucination, auditory, worst severity Severe: Events: 0
  Hallucination, auditory, worst severity Severe: N (%): 0
  Hallucination, auditory: Events: 4
  Hallucination, tactile: Events: 4
  Hallucination, visual, worst severity Mild: Events: 3
  Hallucination, visual, worst severity Mild: N (%): 3 (10.0)
  Hallucination, visual, worst severity Moderate: Events: 13
  Hallucination, visual, worst severity Severe: Events: 5
  Hallucination, visual: Events: 22
  Hallucination, worst severity Mild: Events: 0
  Hallucination, worst severity Mild: N (%): 0
  Hallucination, worst severity Moderate: Events: 2
  Hallucination, worst severity Severe: Events: 0
  Hallucination, worst severity Severe: N (%): 0
  Hallucination: Events: 2
  Headache, worst severity Mild: Events: 10
  Headache, worst severity Moderate: Events: 5
  Headache, worst severity Severe: Events: 0
  Headache, worst severity Severe: N (%): 0
  Headache: Events: 16
  Hypoaesthesia, worst severity Mild: Events: 4
  Hypoaesthesia, worst severity Mild: N (%): 3 (10.0)
  Hypoaesthesia, worst severity Moderate: Events: 0
  Hypoaesthesia, worst severity Moderate: N (%): 0
  Hypoaesthesia, worst severity Severe: Events: 0
  Hypoaesthesia, worst severity Severe: N (%): 0
  Hypoaesthesia: Events: 4
  Hypoaesthesia: N (%): 3 (10.0)
  Illusion, worst severity Mild: Events: 4
  Illusion, worst severity Mild: N (%): 3 (10.0)
  Illusion, worst severity Moderate: Events: 12
  Illusion, worst severity Severe: Events: 7
  Illusion: Events: 26
  Infections and infestations, worst severity Mild: Events: 4
  Infections and infestations, worst severity Moderate: Events: 0
  Infections and infestations, worst severity Moderate: N (%): 0
  Infections and infestations, worst severity Severe: Events: 0
  Infections and infestations, worst severity Severe: N (%): 0
  Infections and infestations: Events: 4
  Investigations, worst severity Mild: Events: 1
  Investigations, worst severity Moderate: Events: 0
  Investigations, worst severity Moderate: N (%): 0
  Investigations, worst severity Severe: Events: 0
  Investigations, worst severity Severe: N (%): 0
  Investigations: Events: 1
  Mental fatigue: Events: 3
  Mental fatigue: N (%): 3 (10.0)
  Mood altered, worst severity Mild: Events: 3
  Mood altered, worst severity Moderate: Events: 7
  Mood altered, worst severity Moderate: N (%): 6 (20.0)
  Mood altered, worst severity Severe: Events: 9
  Mood altered: Events: 25
  Musculoskeletal and connective tissue disorders, worst severity Mild: Events: 3
  Musculoskeletal and connective tissue disorders, worst severity Moderate: Events: 1
  Musculoskeletal and connective tissue disorders, worst severity Severe: Events: 0
  Musculoskeletal and connective tissue disorders, worst severity Severe: N (%): 0
  Musculoskeletal and connective tissue disorders: Events: 4
  Musculoskeletal and connective tissue disorders: N (%): 3 (10.0)
  Nausea: Events: 3
  Nausea: N (%): 3 (10.0)
  Nervous system disorders, worst severity Mild: Events: 24
